{"source": "ChEMBL document CHEMBL3885881", "about": "“DrugMatrix”", "species_on_record": "Rattus norvegicus", "test": "DrugMatrix - Regimen: Daily Repeat", "format": "toxicity, organism-based, Sprague-Dawley", "design": "regimen Daily Repeat, gender Male, age 6-8 weeks", "settings": "in vivo, iv, 0 mg/kg, dose level Control, vehicle 100 % SALINE; for ABSOLUTE BASOPHIL / ABSOLUTE EOSINOPHIL / ABSOLUTE LYMPHOCYTE / ABSOLUTE MONOCYTE / ABSOLUTE SEGMENTED NEUTROPHIL / BASOPHIL / EOSINOPHIL / ERYTHROCYTE COUNT / HEMATOCRIT / HEMOGLOBIN / LEUKOCYTE COUNT / LYMPHOCYTE / MEAN CORPUSCULAR HEMOGLOBIN / MEAN CORPUSCULAR HEMOGLOBIN CONCENTRATION / MEAN CORPUSCULAR VOLUME / MONOCYTE / NEUTROPHIL / NUCLEATED RED BLOOD CELLS / PLATELET COUNT: tissue Blood; for ALANINE AMINOTRANSFERASE / ALBUMIN / ALKALINE PHOSPHATASE / ASPARTATE AMINOTRANSFERASE / BLOOD UREA NITROGEN / CARBON DIOXIDE / CHLORIDE / CHOLESTEROL / CREATINE PHOSPHOKINASE / CREATININE / GLUCOSE / LACTATE DEHYDROGENASE / LIPASE / PHOSPHORUS / POTASSIUM / SODIUM / TOTAL BILIRUBIN / TOTAL PROTEIN / URIC ACID: tissue Plasma", "data": [{"molecule": "C[N+](C)(C)CCOC(=O)CCC(=O)OCC[N+](C)(C)C.[Cl-].[Cl-]", "note": "[SUCCINYLCHOLINE CHLORIDE]", "values": [{"measurement": "ABSOLUTE BASOPHIL", "setting": "72 h, time 3 day", "result": 0, "unit": "CELLS/uL"}, {"measurement": "ABSOLUTE EOSINOPHIL", "setting": "72 h, time 3 day", "result": 193.5, "unit": "CELLS/uL"}, {"measurement": "ABSOLUTE LYMPHOCYTE", "setting": "72 h, time 3 day", "result": 15717.5, "unit": "CELLS/uL"}, {"measurement": "ABSOLUTE MONOCYTE", "setting": "72 h, time 3 day", "result": 389.33, "unit": "CELLS/uL"}, {"measurement": "ABSOLUTE SEGMENTED NEUTROPHIL", "setting": "72 h, time 3 day", "result": 1883, "unit": "CELLS/uL"}, {"measurement": "BASOPHIL", "setting": "72 h, time 3 day", "result": 0, "unit": "%"}, {"measurement": "EOSINOPHIL", "setting": "72 h, time 3 day", "result": 1.17, "unit": "%"}, {"measurement": "ERYTHROCYTE COUNT", "setting": "72 h, time 3 day", "result": 5.68, "unit": "x10E6/uL"}, {"measurement": "HEMATOCRIT", "setting": "72 h, time 3 day", "result": 35.83, "unit": "%"}, {"measurement": "HEMOGLOBIN", "setting": "72 h, time 3 day", "result": 13.48, "unit": "G/DL"}, {"measurement": "LEUKOCYTE COUNT", "setting": "72 h, time 3 day", "result": 18.18, "unit": "x10E3/uL"}, {"measurement": "LYMPHOCYTE", "setting": "72 h, time 3 day", "result": 86.67, "unit": "%"}, {"measurement": "MEAN CORPUSCULAR HEMOGLOBIN", "setting": "72 h, time 3 day", "result": 23.8, "unit": "pg"}, {"measurement": "MEAN CORPUSCULAR HEMOGLOBIN CONCENTRATION", "setting": "72 h, time 3 day", "result": 37.68, "unit": "G/DL"}, {"measurement": "MEAN CORPUSCULAR VOLUME", "setting": "72 h, time 3 day", "result": 63.27, "unit": "fL"}, {"measurement": "MONOCYTE", "setting": "72 h, time 3 day", "result": 2.17, "unit": "%"}, {"measurement": "NEUTROPHIL", "setting": "72 h, time 3 day", "result": 10, "unit": "%"}, {"measurement": "NUCLEATED RED BLOOD CELLS", "setting": "72 h, time 3 day", "result": "0 /100WBC"}, {"measurement": "PLATELET COUNT", "setting": "72 h, time 3 day", "result": 1186.33, "unit": "x10E3/uL"}, {"measurement": "ALANINE AMINOTRANSFERASE", "setting": "72 h, time 3 day", "result": 68.5, "unit": "u/L"}, {"measurement": "ALBUMIN", "setting": "72 h, time 3 day", "result": 4.37, "unit": "G/DL"}, {"measurement": "ALKALINE PHOSPHATASE", "setting": "72 h, time 3 day", "result": 396.33, "unit": "u/L"}, {"measurement": "ASPARTATE AMINOTRANSFERASE", "setting": "72 h, time 3 day", "result": 92.5, "unit": "u/L"}, {"measurement": "BLOOD UREA NITROGEN", "setting": "72 h, time 3 day", "result": 18, "unit": "mg/dL"}, {"measurement": "CARBON DIOXIDE", "setting": "72 h, time 3 day", "result": 24.33, "unit": "mmol/L"}, {"measurement": "CHLORIDE", "setting": "72 h, time 3 day", "result": 102.4, "unit": "MEQ/L"}, {"measurement": "CHOLESTEROL", "setting": "72 h, time 3 day", "result": 67.17, "unit": "mg/dL"}, {"measurement": "CREATINE PHOSPHOKINASE", "setting": "72 h, time 3 day", "result": 378.67, "unit": "u/L"}, {"measurement": "CREATININE", "setting": "72 h, time 3 day", "result": 0.19, "unit": "mg/dL"}, {"measurement": "GLUCOSE", "setting": "72 h, time 3 day", "result": 178.33, "unit": "mg/dL"}, {"measurement": "LACTATE DEHYDROGENASE", "setting": "72 h, time 3 day", "result": 245.17, "unit": "u/L"}, {"measurement": "LIPASE", "setting": "72 h, time 3 day", "result": 9.2, "unit": "u/L"}, {"measurement": "PHOSPHORUS", "setting": "72 h, time 3 day", "result": 12.37, "unit": "mg/dL"}, {"measurement": "POTASSIUM", "setting": "72 h, time 3 day", "result": 6.48, "unit": "MEQ/L"}, {"measurement": "SODIUM", "setting": "72 h, time 3 day", "result": 143.28, "unit": "MEQ/L"}, {"measurement": "TOTAL BILIRUBIN", "setting": "72 h, time 3 day", "result": 0.23, "unit": "mg/dL"}, {"measurement": "TOTAL PROTEIN", "setting": "72 h, time 3 day", "result": 5.65, "unit": "G/DL"}, {"measurement": "URIC ACID", "setting": "72 h, time 3 day", "result": 1.6, "unit": "mg/dL"}, {"measurement": "ABSOLUTE BASOPHIL", "setting": "120 h, time 5 day", "result": 0, "unit": "CELLS/uL"}, {"measurement": "ABSOLUTE EOSINOPHIL", "setting": "120 h, time 5 day", "result": 27.5, "unit": "CELLS/uL"}, {"measurement": "ABSOLUTE LYMPHOCYTE", "setting": "120 h, time 5 day", "result": 13593.17, "unit": "CELLS/uL"}, {"measurement": "ABSOLUTE MONOCYTE", "setting": "120 h, time 5 day", "result": 576, "unit": "CELLS/uL"}, {"measurement": "ABSOLUTE SEGMENTED NEUTROPHIL", "setting": "120 h, time 5 day", "result": 1836.67, "unit": "CELLS/uL"}, {"measurement": "BASOPHIL", "setting": "120 h, time 5 day", "result": 0, "unit": "%"}, {"measurement": "EOSINOPHIL", "setting": "120 h, time 5 day", "result": 0.17, "unit": "%"}, {"measurement": "ERYTHROCYTE COUNT", "setting": "120 h, time 5 day", "result": 5.99, "unit": "x10E6/uL"}, {"measurement": "HEMATOCRIT", "setting": "120 h, time 5 day", "result": 37.42, "unit": "%"}, {"measurement": "HEMOGLOBIN", "setting": "120 h, time 5 day", "result": 13.78, "unit": "G/DL"}, {"measurement": "LEUKOCYTE COUNT", "setting": "120 h, time 5 day", "result": 16.03, "unit": "x10E3/uL"}, {"measurement": "LYMPHOCYTE", "setting": "120 h, time 5 day", "result": 85.17, "unit": "%"}, {"measurement": "MEAN CORPUSCULAR HEMOGLOBIN", "setting": "120 h, time 5 day", "result": 23.08, "unit": "pg"}, {"measurement": "MEAN CORPUSCULAR HEMOGLOBIN CONCENTRATION", "setting": "120 h, time 5 day", "result": 36.83, "unit": "G/DL"}, {"measurement": "MEAN CORPUSCULAR VOLUME", "setting": "120 h, time 5 day", "result": 62.6, "unit": "fL"}, {"measurement": "MONOCYTE", "setting": "120 h, time 5 day", "result": 3.5, "unit": "%"}, {"measurement": "NEUTROPHIL", "setting": "120 h, time 5 day", "result": 11.17, "unit": "%"}, {"measurement": "NUCLEATED RED BLOOD CELLS", "setting": "120 h, time 5 day", "result": "0 /100WBC"}, {"measurement": "PLATELET COUNT", "setting": "120 h, time 5 day", "result": 1352.5, "unit": "x10E3/uL"}, {"measurement": "ALANINE AMINOTRANSFERASE", "setting": "120 h, time 5 day", "result": 49.83, "unit": "u/L"}, {"measurement": "ALBUMIN", "setting": "120 h, time 5 day", "result": 4.25, "unit": "G/DL"}, {"measurement": "ALKALINE PHOSPHATASE", "setting": "120 h, time 5 day", "result": 331.33, "unit": "u/L"}, {"measurement": "ASPARTATE AMINOTRANSFERASE", "setting": "120 h, time 5 day", "result": 86.17, "unit": "u/L"}, {"measurement": "BLOOD UREA NITROGEN", "setting": "120 h, time 5 day", "result": 19.5, "unit": "mg/dL"}, {"measurement": "CARBON DIOXIDE", "setting": "120 h, time 5 day", "result": 26.67, "unit": "mmol/L"}, {"measurement": "CHLORIDE", "setting": "120 h, time 5 day", "result": 103, "unit": "MEQ/L"}, {"measurement": "CHOLESTEROL", "setting": "120 h, time 5 day", "result": 67.5, "unit": "mg/dL"}, {"measurement": "CREATINE PHOSPHOKINASE", "setting": "120 h, time 5 day", "result": 346.17, "unit": "u/L"}, {"measurement": "CREATININE", "setting": "120 h, time 5 day", "result": 0.22, "unit": "mg/dL"}, {"measurement": "GLUCOSE", "setting": "120 h, time 5 day", "result": 170.67, "unit": "mg/dL"}, {"measurement": "LACTATE DEHYDROGENASE", "setting": "120 h, time 5 day", "result": 405.5, "unit": "u/L"}, {"measurement": "LIPASE", "setting": "120 h, time 5 day", "result": 8.83, "unit": "u/L"}, {"measurement": "PHOSPHORUS", "setting": "120 h, time 5 day", "result": 11.3, "unit": "mg/dL"}, {"measurement": "POTASSIUM", "setting": "120 h, time 5 day", "result": 6.06, "unit": "MEQ/L"}, {"measurement": "SODIUM", "setting": "120 h, time 5 day", "result": 143.4, "unit": "MEQ/L"}, {"measurement": "TOTAL BILIRUBIN", "setting": "120 h, time 5 day", "result": 0.17, "unit": "mg/dL"}, {"measurement": "TOTAL PROTEIN", "setting": "120 h, time 5 day", "result": 6.22, "unit": "G/DL"}, {"measurement": "URIC ACID", "setting": "120 h, time 5 day", "result": 1.63, "unit": "mg/dL"}]}]}
